Test results reported in patent US12076340B2, “Use of trientine to deliver copper to ischemic tissue” (INNOLIFE CO., LTD., priority 2015, dated 2024).

Key:
[1] = system: mouse model of myocardial ischemic infarction
Method: (§1) In this experiment, a mouse model of myocardial ischemic infarction was established by a permanent coronary artery ligation operation.
(§2) Trientine treatment was administered to four groups of modelized mice via intragastric route twice a day at a dose of 16.75, 33.49, 55.94, or 78.25 mg/kg per day. This treatment was continued for 4 weeks.
(§3) Tissue samples were freshly frozen and stored at −80° C. before lyophilization. […] Ultrapure water was added to each vessel to dilute HNO3 to 2% for subsequent analyses of copper concentrations. Copper concentrations were determined by graphite furnace atomic absorption spectrophotometry (ICE3500, Thermo) according to the program shown in Table 1 of Example 3.

[2] = system: Sprague-Dawley rats with pathologic cardiac hypertrophy
Method: This example describes an in vivo experiment for assessing efficacy of the trientine therapy in Sprague-Dawley rats with pathologic cardiac hypertrophy. The rat model of pathologic cardiac hypertrophy was established by an ascending aortic constriction operation.
The rats were sedated by intraperitoneal injection of 10% chloral hydrate ([…]) for echocardiography measurements. At 4 months after the aortic constriction operation and at 1, 3 and 5 weeks after the trientine treatment, a series of echocardiograms were performed using an 11.5-MHz transducer (Vivid 7 Dimension, GE). Interventricular septum depth (IVSD) and left ventricular posterior wall depth (LVPWD) were obtained using two-dimensional mode by taking measurements of the short-axis cross-sectional areas and the left ventricular length.
The ejection fraction (EF) and shortening fraction (FS) of the left ventricular were evaluated with the Simpson's single-plane method. Left-ventricular end-diastolic volume (LVEDV), end-systolic volume (LVESV), end-diastolic interior diameter (LVIDd) and end-systolic interior diameter (LVIDs) were directly recorded. EF and FS were calculated according to the following formulas: EF=(LVEDV−LVESV)/LVEDV×100%, FS=(LVIDd−LVIDs)/LVIDd×100%
(§4) The aortic ascending constriction (AAC) group was divided into three groups: a control group (NS group) and two trientine treatment groups (Tr(H) group and Tr(L) group). Rats in the sham group were subjected to the same surgical procedure except for the steps of the aortic ascending constriction. The sham group rats were also divided into three groups: a control group (NS group) and two trientine treatment groups (Tr(H) group and Tr(L) group). Rats in the control groups were treated with a saline solution. Trientine was administered orally twice a day in the trientine treatment groups. Two doses of trientine (dose calculated based on trientine dihydrochloride) were administered, […]. The treatment was continued for 6 weeks.
(§5) Cardiac morphology and functions were evaluated by echocardiography, and plasma copper concentrations were measured (i.e. blood detection) to assess therapeutic efficacy of the trientine treatments according to the schedule shown in FIG. 7.

[3] = system: Rhesus monkey model of heart failure; details: 18 mg/kg/day oral two times daily, eight weeks; untreated group decreased; FIG. 12
Method: The ejection fraction (EF) of the left ventricular was evaluated with the Simpson's single-plane method. Left-ventricular end-diastolic volume (LVEDV) and end-systolic volume (LVESV) were directly recorded, and EF was calculated using as follows: EF=(LVEDV−LVESV)/LVEDV×100%.
(§6) Trientine treatment was subsequently conducted. In the trientine-treated group, trientine was administered to each monkey orally two times daily. The dose of trientine was 18 mg/kg/day. This treatment was continued for eight weeks. […] Cardiac functions and morphology were evaluated according to the schedule shown in FIG. 11 to assess therapeutic efficacy of trientine.

[4] = system: Rhesus monkey model of heart failure; details: 18 mg/kg/day oral, eight weeks; FIG. 13
Method: as §6
as §3, with “−80° °” for “−80°”
Copper concentration in the myocardium was determined by atomic absorption spectroscopy.

[5] = system: Sprague-Dawley rats with pathologic cardiac hypertrophy; details: AAC rats, trientine treatment for 6 weeks, AAC-Tr(H) and AAC-Tr(L) combined; FIG. 10A
Method: as §4, §5
Tissue samples were freshly frozen and stored at −80° C. before lyophilization. […] Ultrapure water was added to each vessel to dilute HNO3 to 2% for subsequent analyses of copper concentrations.

[6] = system: mouse model of myocardial ischemic infarction; details: 4 weeks
Method: as §1, §2
Cardiac functions were evaluated by echocardiography to assess therapeutic efficacy of trientine. All mice were subjected to transthoracic echocardiographic evaluation with a 12 MHz transducer (i13L, Vivid7, GE Ultrasound). The ejection fraction (EF) of the left ventricular was evaluated with the Simpson's single-plane method. Left-ventricular end-diastolic volume (LVEDV) and end-systolic volume (LVESV) were directly recorded, and EF was calculated using as follows: EF=(LVEDV−LVESV)/LVEDV×100%.

[7] = AAC rats, oral twice a day, after 3 weeks of treatment

NCCNCCNCCN [trientine, triethylenetetramine]
dose at which copper content in the infarct area was the highest ([1]; doses tested 16.75, 33.49, 55.94, 78.25 mg/kg per day, 4 weeks): 33.49 mg/kg per day | copper content of the infarcted area or ejection fraction at higher doses than 33.49 mg/kg per day ([1]; higher trientine doses tested (55.94, 78.25 mg/kg per day)): no further improvement | copper concentration in the infarcted area ([1]; intragastric twice a day, 4 weeks, FIG. 16): increased significantly | IVSD as compared to the sham groups ([2]; AAC rats treated for 5 weeks): nearly normal | LVPWD as compared to the sham groups ([2]; AAC rats treated for 5 weeks): nearly normal | interventricular septum depth (IVSD) [2, 7]: decreased significantly | left ventricular posterior wall depth (LVPWD) [2, 7]: decreased significantly | IVSD values over time (continuous monitoring) ([2]; treated AAC groups, control group increased steadily, FIG. 8A): significantly downward trend | LVPWD values over time (continuous monitoring) ([2]; treated AAC groups, control group increased steadily, FIG. 8B): significantly downward trend | left ventricular ejection fraction (EF) ([2]; trientine-treated groups, untreated groups showed significant downward trend, FIG. 9A): did not fluctuate very significantly | left ventricular shortening fraction (FS) ([2]; trientine-treated groups, untreated groups showed significant downward trend, FIG. 9B): did not fluctuate very significantly | left ventricular ejection fraction [3]: increased significantly | copper concentration, border zone, compared to untreated group [4]: increased significantly | copper concentration, infarcted area, compared to untreated group [4]: increased significantly | copper concentration, remote areas, treated vs untreated group [4]: comparable | copper concentrations in the heart tissues [5]: increased | dose at which the improvement ratio of ejection fraction reached a peak ([6]; doses tested 16.75, 33.49, 55.94, 78.25 mg/kg per day): 33.49 mg/kg per day | improvement of left ventricular ejection fraction at higher doses ([6]; intragastric twice a day, FIG. 15): decreased | cardiac function as measured by left ventricular ejection fraction, lower doses ([6]; intragastric twice a day, 16.75-78.25 mg/kg per day, FIG. 15): improved
